Results as given in patent US12441725B2, “ISO-citrate dehydrogenase (IDH) inhibitor” (ZHEJIANG METON PHARMACEUTICAL CO., LTD, priority 2019, dated 2025).
pIC50: −log10 of the molar value.

How the values were obtained:
IDH1 R132H = target: T1, IDH1 R132H (Homo sapiens, UniProt O75874, R132H); experiment: Biochemical assay for IDH inhibition (NADPH fluorescence), mutant IDH1 R132H; details: 50 nM IDH1-R132H, 1 hour pre-incubation, in triplet
T1 construct: 6xHis
Procedure, shortened: (§1)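 The read-out was the linear-phase loss of NADPH fluorescence (340/460 nm) over 15 min, background-subtracted and normalized to DMSO wells, giving triplicate IC50 values. Beforehand, R132H (50 nM) or R132C (25 nM) was exposed to compound for 1 h at room temperature with 1.33 mM α-KG at pH 7.5, and the reaction was triggered by adding an 80 μM NADPH solution.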

IDH1 R132C = target: T2, IDH1 R132C (Homo sapiens, UniProt O75874, R132C); experiment: Biochemical assay for IDH inhibition (NADPH fluorescence), mutant IDH1 R132C; details: 25 nM IDH1-R132C, 1 hour pre-incubation, in triplet
T2 construct: 6xHis
Procedure, shortened: as §1

[1] = target: T3, IDH (endogenous IDH1 R132C) in HT1080 cell (Homo sapiens, UniProt O75874, R132C); experiment: Cell-based assay for IDH inhibition (decrease of D-2-HG) in HT1080 cells; details: human fibrosarcoma cell line HT1080, 16 hours treatment, D-2-HG by LC-MS, in triplet
T3 construct: which harbor endogenous heterozygous IDH1 R132C and R132H mutation respectively and accumulate D-2-HG
Procedure, shortened: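 LC-MS/MS quantification of D-2-HG, normalized to glutamate, follows a 16 h compound exposure of IDH1 R132C HT1080 cells in DMEM with 10% FBS. Extraction uses pre-chilled 40% methanol/40% acetonitrile in water. Triplicate determinations; IC50 from D-2-HG levels relative to DMSO-treated cells.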

T1 sequence (O75874 whole entry R132H): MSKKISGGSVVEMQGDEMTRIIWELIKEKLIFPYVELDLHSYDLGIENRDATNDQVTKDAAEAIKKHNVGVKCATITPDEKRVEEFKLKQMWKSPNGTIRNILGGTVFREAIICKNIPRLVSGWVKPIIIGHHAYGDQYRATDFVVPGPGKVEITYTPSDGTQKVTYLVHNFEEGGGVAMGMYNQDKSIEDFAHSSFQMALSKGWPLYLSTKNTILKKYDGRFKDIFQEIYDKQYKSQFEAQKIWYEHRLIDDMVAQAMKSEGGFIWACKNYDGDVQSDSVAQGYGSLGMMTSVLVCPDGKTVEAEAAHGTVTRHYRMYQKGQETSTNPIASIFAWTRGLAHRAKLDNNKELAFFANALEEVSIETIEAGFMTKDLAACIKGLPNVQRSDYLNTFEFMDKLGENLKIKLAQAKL
T3 sequence (O75874 2-414 R132C): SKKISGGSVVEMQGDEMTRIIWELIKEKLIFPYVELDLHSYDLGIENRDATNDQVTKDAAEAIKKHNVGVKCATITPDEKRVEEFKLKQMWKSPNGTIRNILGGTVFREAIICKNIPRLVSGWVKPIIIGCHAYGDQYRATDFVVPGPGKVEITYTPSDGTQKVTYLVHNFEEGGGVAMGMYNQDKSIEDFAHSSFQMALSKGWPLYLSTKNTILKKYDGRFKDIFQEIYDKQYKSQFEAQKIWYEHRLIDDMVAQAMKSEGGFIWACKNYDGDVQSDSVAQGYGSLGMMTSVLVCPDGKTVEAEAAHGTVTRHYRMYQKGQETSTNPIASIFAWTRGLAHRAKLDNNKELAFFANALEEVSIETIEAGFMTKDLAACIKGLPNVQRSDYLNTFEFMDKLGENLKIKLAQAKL
T2 sequence (O75874 whole entry R132C): as the sequence (O75874 whole entry R132H) above, with H132C counted along it

pIC50 (IDH1 R132H)	pIC50 (IDH1 R132C)	pIC50 [1]	SMILES
6.30 to 7.00	< 6.00	< 6.00	CCN1Cc2c(ccnc2N[C@@H](C)c2cc(F)c(-c3cc(C(F)(F)F)cc(O)n3)cc2F)C1=O [Compound 157, (S)-4-((1-(2,5-difluoro-4-(6-hydroxy-4-(trifluoromethyl)pyridin-2-yl)phenyl)ethyl)amino)-2-ethyl-2,3-dihydro-1H-pyrrolo[3,4-c]pyridin-1-one]
< 6.00	< 6.00	6.00 to 6.30	CCN1Cc2c(ccnc2N[C@@H](C)c2ccc(-c3ccnc(C4(O)CCC4)c3)c(F)c2)C1=O [Compound 78, (S)-2-ethyl-4-((1-(3-fluoro-4-(2-(1-hydroxycyclobutyl)pyridin-4-yl)phenyl)ethyl)amino)-2,3-dihydro-1H-pyrrolo[3,4-c]pyridin-1-one]
> 7.00	6.30 to 7.00	6.30 to 7.00	CCN1Cc2c(ccnc2N[C@@H](C)c2cc(F)c(-c3ccnc(C4CCC4)c3)cc2F)C1=O [Compound 89, (S)-4-((1-(4-(2-cyclobutylpyridin-4-yl)-2,5-difluorophenyl)ethyl)amino)-2-ethyl-2,3-dihydro-1H-pyrrolo[3,4-c]pyridin-1-one]
< 6.00	< 6.00	< 6.00	CCN1Cc2c(ccnc2N[C@@H](C)c2ccc(-c3cc(C)nc(C)c3)c(F)c2)C1=O [Compound 76, (S)-4-((1-(4-(2,6-dimethylpyridin-4-yl)-3-fluorophenyl)ethyl)amino)-2-ethyl-2,3-dihydro-1H-pyrrolo[3,4-c]pyridin-1-one]
> 7.00	6.30 to 7.00	6.30 to 7.00	CCN1Cc2c(ccnc2N[C@@H](C)c2cc(F)c(-c3ccnc(C(C)(C)F)c3)cc2F)C1=O [Compound 102, 4-[[(1S)-1-[2,5-difluoro-4-[2-(1-fluoro-1-methyl-ethyl)-4-pyridyl]phenyl]ethyl]amino]-2-ethyl-3H-pyrrolo[3,4-c]pyridin-1-one]
< 6.00	< 6.00	< 6.00	CCN1Cc2c(ccnc2N[C@@H](C)c2ccc(C3CCN(C(C)(C)C)CC3)c(F)c2)C1=O [Compound 36, (S)-4-((1-(4-(1-(tert-butyl)piperidin-4-yl)-3-fluorophenyl)ethyl)amino)-2-ethyl-2,3-dihydro-1H-pyrrolo[3,4-c]pyridin-1-one]
< 6.00	< 6.00	< 6.00	CCN1Cc2c(ccnc2N[C@@H](C)c2ccc(OC3CCCCC3)c(F)c2)C1=O [Compound 14, (S)-4-((1-(4-(cyclohexyloxy)-3-fluorophenyl)ethyl)amino)-2-ethyl-2,3-dihydro-1H-pyrrolo[3,4-c]pyridin-1-one]
> 7.00	6.30 to 7.00	6.30 to 7.00	CCN1Cc2c(ccnc2N[C@@H](C)c2cc(F)c(-c3ccnc(C(C)(C)C)n3)cc2F)C1=O [Compound 111, (S)-4-((1-(4-(2-(tert-butyl)pyrimidin-4-yl)-2,5-difluorophenyl)ethyl)amino)-2-ethyl-2,3-dihydro-1H-pyrrolo[3,4-c]pyridin-1-one]
6.00 to 6.30	6.00 to 6.30	< 6.00	Cc1ccc(Oc2ccc([C@H](C)Nc3nccc4c3CN(CCF)C4=O)cc2F)cc1 [Compound 16, (S)-4-((1-(3-fluoro-4-(p-tolyloxy)phenyl)ethyl)amino)-2-(2-fluoroethyl)-2,3-dihydro-1H-pyrrolo[3,4-c]pyridin-1-one]
< 6.00	< 6.00	< 6.00	CCN1Cc2c(ccnc2N[C@H](C)c2cn(-c3ccc(Cl)cc3)cn2)C1=O [Compound 58, (R)-4-((1-(1-(4-chlorophenyl)-1H-imidazol-4-yl)ethyl)amino)-2-ethyl-2,3-dihydro-1H-pyrrolo[3,4-c]pyridin-1-one]
6.30 to 7.00	6.30 to 7.00	6.00 to 6.30	C[C@H](Nc1nccc2c1CN(CC(F)F)C2=O)c1ccc(-c2ccnc(C(C)(C)C)c2)c(F)c1 [Compound 37, (S)-4-((1-(4-(2-(tert-butyl)pyridin-4-yl)-3-fluorophenyl)ethyl)amino)-2-(2,2-difluoroethyl)-2,3-dihydro-1H-pyrrolo[3,4-c]pyridin-1-one]
< 6.00	< 6.00	6.30 to 7.00	CCN1Cc2c(N[C@@H](C)c3ccc(Oc4ccc(C)cc4)c(F)c3)ncnc2C1=O [Compound 65, 6-ethyl-4-[[(1S)-1-[3-fluoro-4-(4-methylphenoxy)phenyl]ethyl]amino]-5H-pyrrolo[3,4-d]pyrimidin-7-one]
> 7.00	6.30 to 7.00	6.30 to 7.00	CCN1Cc2c(ccnc2N[C@@H](C)c2cc(F)c(-c3cc(C4(C(F)(F)F)CC=NN4)ccn3)cc2F)C1=O (stereo partly drawn) [Compound 126, 4-(((1S)-1-(2,5-difluoro-4-(4-(5-(trifluoromethyl)-4,5-dihydro-1H-pyrazol-5-yl)pyridin-2-yl)phenyl)ethyl)amino)-2-ethyl-2,3-dihydro-1H-pyrrolo[3,4-c]pyridin-1-one]
< 6.00	< 6.00	< 6.00	CCN1Cc2c(ccnc2N[C@@H](C)c2ccc(Oc3ccnc(C(F)(F)F)c3)c(F)c2)C1=O [Compound 26, (S)-2-ethyl-4-((1-(3-fluoro-4-((2-(trifluoromethyl)pyridin-4-yl)oxy)phenyl)ethyl)amino)-2,3-dihydro-1H-pyrrolo[3,4-c]pyridin-1-one]
< 6.00	< 6.00	< 6.00	CCN1Cc2c(ccnc2N[C@@H](C)c2ccc(-c3ccc(F)cc3)c(F)c2)C1=O [Compound 74, (S)-4-((1-(2,4′-difluoro-[1,1′-biphenyl]-4-yl)ethyl)amino)-2-ethyl-2,3-dihydro-1H-pyrrolo[3,4-c]pyridin-1-one]
> 7.00	> 7.00	> 7.00	CCN1Cc2c(ccnc2N[C@@H](C)c2cc(F)c(-c3cc(C4(F)CC4)cc(C)n3)cc2F)C1=O [Compound 131, (S)-4-((1-(2,5-difluoro-4-(4-(1-fluorocyclopropyl)-6-methylpyridin-2-yl)phenyl)ethyl)amino)-2-ethyl-2,3-dihydro-1H-pyrrolo[3,4-c]pyridin-1-one]
> 7.00	6.30 to 7.00	< 6.00	CCN1Cc2c(ccnc2N[C@@H](C)c2cc(F)c(Oc3ccc4c(ccn4C)c3)cc2F)C1=O [Compound 21, (S)-4-((1-(2,5-difluoro-4-((1-methyl-1H-indol-5-yl)oxy)phenyl)ethyl)amino)-2-ethyl-2,3-dihydro-1H-pyrrolo[3,4-c]pyridin-1-one]
< 6.00	< 6.00	< 6.00	CCN1Cc2c(ccnc2N[C@@H](C)c2ccc(-c3ccn(C)n3)c(F)c2)C1=O [Compound 83, (S)-2-ethyl-4-((1-(3-fluoro-4-(1-methyl-1H-pyrazol-3-yl)phenyl)ethyl)amino)-2,3-dihydro-1H-pyrrolo[3,4-c]pyridin-1-one]
< 6.00	< 6.00	< 6.00	CCN1Cc2c(ccnc2N[C@@H](C)c2cc(F)c(-c3ccnc(C(C)(C)O)c3)cc2F)C1=O [Compound 103, (S)-4-((1-(2,5-difluoro-4-(2-(2-hydroxypropan-2-yl)pyridin-4-yl)phenyl)ethyl)amino)-2-ethyl-2,3-dihydro-1H-pyrrolo[3,4-c]pyridin-1-one]
6.30 to 7.00	6.00 to 6.30	6.30 to 7.00	CCN1Cc2c(ccnc2N[C@@H](C)c2cc(F)c(-c3cc(C(C)(C)F)cc(O)n3)cc2F)C1=O [Compound 156, (S)-4-((1-(2,5-difluoro-4-(4-(2-fluoropropan-2-yl)-6-hydroxypyridin-2-yl)phenyl)ethyl)amino)-2-ethyl-2,3-dihydro-1H-pyrrolo[3,4-c]pyridin-1-one]
> 7.00	6.30 to 7.00	6.30 to 7.00	C[C@H](Nc1nccc2c1CN([C@H](C)CF)C2=O)c1ccc(-c2ccnc(C(C)(C)C)c2)c(F)c1 [Compound 40, 4-(((S)-1-(4-(2-(tert-butyl)pyridin-4-yl)-3-fluorophenyl)ethyl)amino)-2-((R)-1-fluoropropan-2-yl)-2,3-dihydro-1H-pyrrolo[3,4-c]pyridin-1-one]
< 6.00	< 6.00	6.00 to 6.30	CCN1Cc2c(ccnc2N[C@@H](C)c2ccc(-c3ccnc(C(C)(C)C(N)=O)c3)c(F)c2)C1=O [Compound 69, 2-[4-[4-[(1S)-1-[(2-ethyl-1-oxo-3H-pyrrolo[3,4-c]pyridin-4-yl)amino]ethyl]-2-fluoro-phenyl]-2-pyridyl]-2-methyl-propanamide]
6.30 to 7.00	6.00 to 6.30	6.30 to 7.00	CCN1Cc2c(ccnc2N[C@@H](C)c2cc(F)c(-c3ccnc(CC4CC4)c3)cc2F)C1=O [Compound 91, (S)-4-((1-(4-(2-(cyclopropylmethyl)pyridin-4-yl)-2,5-difluorophenyl)ethyl)amino)-2-ethyl-2,3-dihydro-1H-pyrrolo[3,4-c]pyridin-1-one]
> 7.00	> 7.00	> 7.00	CCN1Cc2c(ccnc2N[C@@H](C)c2cc(F)c(-c3cc(C(C)(C)C)c(OC)cn3)cc2F)C1=O [Compound 150, (S)-4-((1-(4-(4-(tert-butyl)-5-methoxypyridin-2-yl)-2,5-difluorophenyl)ethyl)amino)-2-ethyl-2,3-dihydro-1H-pyrrolo[3,4-c]pyridin-1-one]
